Test results published in patent US20080220030A1, “Nanoparticles Comprising Chitosan and Cyclodextrin” (UNIVERSIDADE DE SANTIAGO DE COMPOSTELA, priority 2005, published 2008).
Converted amounts (≈) assume the structure as drawn.

Tests used:
Assay type in all cases: physicochemical
[1] = Encapsulation efficiency and load of furosemide in nanoparticles (Example 8)
Description: (§1) The encapsulation efficiency (EE) refers to the percentage of drug which is trapped in the chitosan-cyclodextrin system with respect to the quantity of drug added in the process of preparation of the nanoparticles. The drug load is indirectly determined from a calculation of the non-encapsulated drug which remains dissolved in the nanoparticles' suspension medium. The difference between this value and the theoretical drug content is taken to be the quantity of drug loaded in the nanoparticles. The drug load percentage which appears in the table is the percentage with respect to the quantity of encapsulated drug in 100 mg of nanoparticle.
The drug that was not dissolved by the cyclodextrin-polymer mixture was discarded during the filtration process (through 0.45 .m) which was conducted prior to crosslinking the polymer (see example 3). […]. […]

[2] = Solubility of triclosan in the initial chitosan-cyclodextrin solutions (Example 7); conditions: aqueous with cosolvent or surfactant or cyclodextrin, thermodynamic from solid
Procedure: (§2) Nanoparticles of chitosan-cyclodextrin were obtained according to the method described in example 2, but adding a sufficient quantity of the drug triclosan to the initial solutions in order to oversaturate the solution. The drug that was not dissolved by the cyclodextrin-polymer mixture was discarded during the filtration process (through 0.45 .m) which was conducted prior to crosslinking the polymer by means of ionotropic crosslinking (see example 2). […] The triclosan was measured by means of a spectrophotometric method (.=280 nm).

[3] = Dissolved triclosan in 80% water / 20% ethanol phase (Example 10)
Procedure: (§3) In a mixture of 80% water and 20% ethanol, solutions (3 ml) of chitosan (Protasan Cl110, 0.2%), HP.CD (0, 1.28 and 2.56 mM) and triclosan were prepared in a sufficient quantity to oversaturate the solution. These solutions were incubated for 24 h under magnetic stirring and, subsequently, filtered through a 0.45-.m filter and crosslinked by the addition of 1.2 ml of tripolyphosphate dissolved in a mixture of 80% water and 20% ethanol at a concentration of 1.25 mg/ml. The nanoparticles were isolated by centrifugation at 16000×g and resuspended in water. The size of the resulting particles and the polydispersion thereof were characterised by means of photon correlation spectroscopy (PCS). The quantity of encapsulated drug was determined by the degradation of an aliquot of the resuspended nanoparticles with the enzyme chitosanase (Chitosanase-RD, Pias Co, Japan), and the assessment was performed by means of spectrophotometry (.=280 nm).

[4] = Encapsulation efficiency and load of triclosan, chitosanase degradation (Example 10); conditions: 80% water/20% ethanol
Procedure: as §3

[5] = Encapsulation efficiency and load of triclosan in nanoparticles (Example 7)
Procedure: as §2, §1

[6] = type HPCD •, 25 mM (first 25 mM line)
[7] = type HPCD •, 25 mM (second 25 mM line)

NS(=O)(=O)c1cc(C(=O)O)c(NCc2ccco2)cc1Cl [furosemide]
furosemide EE ([1]; HPCD 0 mM): 22.3 ± 1.4%
load of furosemide ([1]; HPCD 0 mM): 0.23 ± 0.07%
furosemide EE ([1]; type HPCD •, 3.14 mM): 17.1 ± 3.0%
load of furosemide ([1]; type HPCD •, 3.14 mM): 0.89 ± 0.04%
furosemide EE ([1]; type HPCD •, 6.29 mM): 12.1 ± 1.3%
load of furosemide ([1]; type HPCD •, 6.29 mM): 1.43 ± 0.24%
furosemide EE [1, 6]: 7.2 ± 3.1%
load of furosemide [1, 6]: 2.39 ± 0.72%
furosemide EE [1, 7]: 8.8 ± 2.7%
load of furosemide [1, 7]: 1.92 ± 0.55%

Oc1cc(Cl)ccc1Oc1ccc(Cl)cc1Cl [triclosan]
solubility ([2]; HPCD 0 mM): 68 ± 17 µg/mL (≈ 235 µM)
solubility ([2]; type HPCD •, 3.14 mM): 211 ± 24 µg/mL (≈ 729 µM)
solubility ([2]; type HPCD •, 6.29 mM): 588 ± 18 µg/mL (≈ 2030 µM)
solubility [2, 6]: 1120 ± 13 µg/mL (≈ 3870 µM)
solubility [2, 7]: 870 ± 59 µg/mL (≈ 3000 µM)
dissolved triclosan ([3]; HP•CD 0 mM): 719 ± 79 mg/L
dissolved triclosan ([3]; HP•CD 1.28 mM): 2536 ± 283 mg/L
dissolved triclosan ([3]; HP•CD 2.56 mM): 3521 ± 213 mg/L
load of triclosan ([4]; HP•CD 0 mM): 2.2 ± 0.9%
triclosan EE ([4]; HP•CD 0 mM): 22.3 ± 1.4%
load of triclosan ([4]; HP•CD 1.28 mM): 7.4 ± 1.3%
triclosan EE ([4]; HP•CD 1.28 mM): 37.7 ± 7.3%
load of triclosan ([4]; HP•CD 2.56 mM): 8.7 ± 0.2%
triclosan EE ([4]; HP•CD 2.56 mM): 33.5 ± 2.7%
triclosan EE ([5]; HPCD 0 mM): 12.5 ± 8%
triclosan load ([5]; HPCD 0 mM): 0.8 ± 0.3%
triclosan EE ([5]; type HPCD •, 3.14 mM): 5.2 ± 7%
triclosan load ([5]; type HPCD •, 3.14 mM): 1.1 ± 0.2%
triclosan EE ([5]; type HPCD •, 6.29 mM): 4.8 ± 3%
triclosan load ([5]; type HPCD •, 6.29 mM): 2.2 ± 0.1%
triclosan EE [5, 6]: 5.5 ± 5%
triclosan load [5, 6]: 3.1 ± 0.1%
triclosan EE [5, 7]: 4.6 ± 4%
triclosan load [5, 7]: 2.0 ± 0.1%
